Results taken from US20230000842A1, “METHODS OF TREATING CARTILAGE DISORDERS THROUGH INHIBITION OF CLK AND DYRK” (SAMUMED, LLC, priority 2019, published 2023).

Experiments:
CLK2 kinase = CLK2 kinase (Homo sapiens, UniProt P49760); experiment: CLK2 kinase activity assay (Z-lyte FRET); format: biochemical; conditions: Z-lyte Ser/Thr 6 peptide, 60 μM ATP, 1 h at room temperature;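 also: FRET read-out as coumarin to fluorescein emission ratio, unphosphorylated peptide as 0% and phosphorylated peptide as 100% controls, duplicate reactions, non-linear regression fit of dose-response curves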
Method: This is a non-radioactive assay using fluorescence resonance energy transfer (FRET) between coumarin and fluorescein to detect kinase activity which is represented as a ratio of coumarin emission/fluorescein emission.
The mixture was allowed to incubate with the representative compounds for one hour at room temperature. All reactions were performed in duplicate. Unphosphorylated (“0% Control”) and phosphorylated (“100% control”) forms of Ser/Thr 6 served as control reactions. Additionally, an 11-point dose-response curve of Staurosporine (1 μM top) was run to serve as a positive compound control.
After incubation, Development Reagent A was diluted in Development Buffer then added to the reaction and allowed to further incubate for one hour at room temperature.
Dose-response curves were generated and inhibitory concentration (IC50) values were calculated using non-linear regression curve fit in the Dotmatics' Studies Software (Bishops Stortford, UK).

CLK3 kinase = CLK3 kinase (Homo sapiens, UniProt P49761); experiment: CLK3 kinase activity assay (Z-lyte FRET); format: biochemical; conditions: Z-lyte Ser/Thr 18 peptide, 156 μM ATP, 1 h at room temperature;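 also: kinase activity read as coumarin/fluorescein emission ratio by FRET, unphosphorylated peptide as 0% and phosphorylated peptide as 100% control, values from non-linear regression of dose-response curves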
[1] = system: primary human mesenchymal stem cells (hMSCs); experiment: Chondrogenesis screening using primary human mesenchymal stem cells; format: cell-based; conditions: Homo sapiens, Mesenchymal stem cells, hMSC chondrogenesis; for EC50: concentration required to induce 50% levels of chondrogenesis with TGF-β3 as positive control, read-out: Conc (nM) of 50% TGF-β3 activity; for Emax: maximum activity relative to TGF-β3 (10 ng/mL) positive control, read-out: Max. Activity as % TGF-β3 activity
Excerpt: Representative compounds were screened using primary human mesenchymal stem cells (hMSCs) to determine their ability to induce chondrogenesis (process by which cartilage is developed).
Human Mesenchymal Stem Cell Culture: Primary human mesenchymal stem cells (hMSCs) were purchased from Lonza (Walkersville, Md.) and expanded in Mesenchymal Stem Cell Growth Media (Lonza). Cells between passage 3 and 6 were used for the experiments.
Area of nodules in each well was normalized to the average of 3 DMSO treated wells on the same plate using Excel (Microsoft Inc.). The normalized averages (fold change over DMSO) of 2 or 3 replicate wells for each compound concentration were calculated. Due to solubility limitations of some of the compounds, curve fitting was incomplete leading to inaccurate EC50 determinations.
Using TGF-β3 as a positive control, the concentration of representative compounds required to induce 50% levels of chondrogenesis is reported. In addition, the maximum activity of each compound and the respective dose that each compound reached maximum chondrogenesis activity is reported.

[2] = system: Wnt pathway activity (SW480 colon carcinoma cells stably expressing the Sp5-Luc reporter); experiment: Wnt pathway activity screening assay (Sp5-Luc reporter gene assay); conditions: Homo sapiens, SW480, Table 4; SW480 cells stably expressing Sp5-Luc reporter, 10-point dose-response from 10 μM, 36 to 48 hours

Sequence of CLK2 kinase (P49760 whole entry): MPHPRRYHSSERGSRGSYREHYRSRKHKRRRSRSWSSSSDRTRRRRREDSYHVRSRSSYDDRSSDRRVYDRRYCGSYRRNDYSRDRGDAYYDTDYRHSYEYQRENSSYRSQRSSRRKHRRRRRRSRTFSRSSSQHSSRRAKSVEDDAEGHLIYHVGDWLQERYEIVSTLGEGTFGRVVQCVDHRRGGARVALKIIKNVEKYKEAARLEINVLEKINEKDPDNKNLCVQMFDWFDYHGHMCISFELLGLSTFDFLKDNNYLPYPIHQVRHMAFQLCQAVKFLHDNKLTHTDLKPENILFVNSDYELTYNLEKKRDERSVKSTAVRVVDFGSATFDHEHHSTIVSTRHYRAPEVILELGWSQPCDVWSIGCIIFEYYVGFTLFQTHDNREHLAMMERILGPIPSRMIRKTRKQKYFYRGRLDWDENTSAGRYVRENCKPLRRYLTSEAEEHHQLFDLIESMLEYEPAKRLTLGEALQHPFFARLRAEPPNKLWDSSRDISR
Sequence of CLK3 kinase (P49761 whole entry): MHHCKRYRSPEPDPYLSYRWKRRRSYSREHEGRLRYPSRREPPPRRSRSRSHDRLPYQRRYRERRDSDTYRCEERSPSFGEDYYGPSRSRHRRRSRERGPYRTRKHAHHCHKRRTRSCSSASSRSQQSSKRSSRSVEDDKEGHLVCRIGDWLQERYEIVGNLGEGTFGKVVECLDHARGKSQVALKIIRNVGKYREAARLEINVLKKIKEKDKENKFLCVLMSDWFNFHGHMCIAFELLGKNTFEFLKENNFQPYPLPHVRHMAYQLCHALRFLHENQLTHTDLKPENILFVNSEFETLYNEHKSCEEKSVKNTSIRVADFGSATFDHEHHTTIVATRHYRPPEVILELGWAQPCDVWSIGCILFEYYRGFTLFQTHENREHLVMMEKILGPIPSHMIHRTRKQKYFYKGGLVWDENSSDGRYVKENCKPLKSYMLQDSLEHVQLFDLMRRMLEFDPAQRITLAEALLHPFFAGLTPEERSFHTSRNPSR

EC50 (CLK2 kinase) | EC50 (CLK3 kinase) | EC50 [1] | EC50 [2] | Structure (SMILES) | Emax [1]
20 nM | 4930 nM | 10 nM | 22.3 nM | COc1cncc(C(=O)Nc2c[nH]nc2C(=O)Nc2ccc(OCCN3CCCC3)nc2)c1 [compound 5] | 106%
14 nM | 2360 nM | – | 681 nM | COc1cncc(C(=O)Nc2c[nH]nc2C(=O)Nc2ccc(N3CCNCC3)nc2)c1 [compound 7] | 90.7%
2 nM | 361 nM | 30 nM | 253 nM | Cc1n[nH]c2ccc(-c3cncc(OC[C@H](N)Cc4ccccc4)n3)cc12 [compound 52] | 52.1%
2 nM | 109 nM | 30 nM | 50 nM | COc1ccc(NC(=O)c2n[nH]c3ccc(-c4cncc(CN5CCCC5)c4)cc23)cn1 [compound 71] | 63.1%
2 nM | 22 nM | 100 nM | 5 nM | COc1ccc(NC(=O)c2n[nH]c3ccc(-c4cncc(CN5CCC(F)(F)C5)c4)cc23)cn1 [compound 72] | 72.2%
1 nM | 11 nM | 30 nM | 4 nM | CN1CCN(c2ccc(NC(=O)c3n[nH]c4ccc(-c5cncc(CN6CCC(F)(F)C6)c5)cc34)cn2)CC1 [compound 73] | 80.9%
1 nM | 44 nM | 30 nM | 57 nM | Cc1ccc(NC(=O)c2n[nH]c3ccc(-c4cncc(CN5CCCCC5)c4)cc23)cn1 [compound 78] | 102%
1 nM | 352 nM | 300 nM | 59 nM | Cc1cncc(NC(=O)c2n[nH]c3ccc(-c4cncc(CN5CCCCC5)c4)cc23)c1 [compound 79] | 68.3%
3 nM | 93 nM | 100 nM | 36.4 nM | O=C(Nc1ccnc(C(F)(F)F)c1)c1n[nH]c2ccc(-c3cncc(CN4CCCCC4)c3)cc12 [compound 80] | 69%
1 nM | 32 nM | 300 nM | 15 nM | COc1ccc(NC(=O)c2n[nH]c3ccc(-c4cncc(CN5CCCCC5)c4)cc23)cn1 [compound 81] | 138%
13 nM | 616 nM | 10 nM | 41 nM | CC(C)Oc1ccc(NC(=O)c2n[nH]c3ccc(-c4cncc(CN5CCCCC5)c4)cc23)cn1 [compound 82] | 51.9%
7 nM | 1800 nM | – | 25 nM | CC(C)CC(=O)Nc1ccncc1NC(=O)c1n[nH]c2ccc(-c3cncc(CN4CCCCC4)c3)cc12 [compound 85] | 45.4%
3 nM | 1270 nM | 30 nM | 120 nM | O=C(Nc1cnccc1NC(=O)C1CC1)c1n[nH]c2ccc(-c3cncc(CN4CCCCC4)c3)cc12 [compound 86] | 53.7%
1 nM | 89 nM | 2700 nM | 2.8 nM | C[C@@H]1CN(c2ccc(NC(=O)c3n[nH]c4ccc(-c5cncc(CN6CCCCC6)c5)cc34)cn2)C[C@H](C)O1 [compound 92] | 129%
1 nM | 11 nM | – | 40 nM | O=C(Nc1ccnnc1)c1n[nH]c2ccc(-c3cncc(CN4CCCCC4)c3)cc12 [compound 94] | –
1 nM | 46 nM | – | 289 nM | O=C(Nc1cnccn1)c1n[nH]c2ccc(-c3cncc(CN4CCCCC4)c3)cc12 [compound 95] | –
1 nM | 60 nM | – | 125 nM | O=C(Nc1ccc2c(c1)OCCO2)c1n[nH]c2ccc(-c3cncc(CN4CCCCC4)c3)cc12 [compound 97] | –
1 nM | 86 nM | 30 nM | 7 nM | CC1CCN(Cc2cncc(-c3ccc4[nH]nc(C(=O)Nc5cccnc5)c4c3)c2)CC1 [compound 98] | 94.4%
1 nM | 99 nM | – | 335 nM | Cc1ncc(NC(=O)c2n[nH]c3ccc(-c4cnc(C)n4C)cc23)s1 [compound 115] | –

EC50 (CLK2 kinase) | EC50 (CLK3 kinase) | EC50 [1] | EC50 [2] | Structure (SMILES) | Emax [1]
5 nM | 48 nM | 100 nM | 6 nM | O=C(Nc1nc2c(-c3cccc(F)c3)cncc2[nH]1)c1n[nH]c2ccc(-c3cccnc3)cc12 [compound 119] | 157%
23 nM | 61 nM | 30 nM | 4.6 nM | CCC(=O)Nc1cncc(-c2ccc3[nH]nc(-c4nc5c(-c6cccc(F)c6)cncc5[nH]4)c3c2)c1 [compound 120] | 139%
3 nM | 30 nM | – | > 10000 nM | CCC(=O)Nc1cncc(-c2ccc3[nH]nc(-c4nc5c(-c6cccc(F)c6)ccnc5[nH]4)c3n2)c1 [compound 121] | 29.3%
11 nM | 6960 nM | 10 nM | 18.8 nM | CCCC(=O)Nc1cncc(-c2cc3c(-c4nc5c(-c6cccc(F)c6)nccc5[nH]4)n[nH]c3cn2)c1 [compound 122] | 67.8%
37 nM | 218 nM | – | 1.4 nM | CC(C)CC(=O)Nc1cncc(-c2ccc3[nH]nc(-c4nc5c(-c6cccc(F)c6)ccnc5[nH]4)c3c2)c1 [compound 124] | 61%
12 nM | 7330 nM | 10 nM | 11 nM | O=C(Nc1cncc(-c2cnc3[nH]nc(-c4nc5c(-c6cccc(F)c6)cncc5[nH]4)c3c2)c1)C1CC1 [compound 126] | 148%
6 nM | 42 nM | – | 9 nM | O=C(Nc1cncc(-c2cnc3[nH]nc(-c4nc5c(-c6cccc(F)c6)cncc5[nH]4)c3c2)c1)N1CCOCC1 [compound 127] | 96.8%
2 nM | 28 nM | – | 345 nM | O=C(CC1CCNCC1)Nc1cncc(-c2cc3c(-c4nc5c(-c6cccc(F)c6)ccnc5[nH]4)n[nH]c3cn2)c1 [compound 128] | 54.7%
53 nM | 164 nM | 100 nM | 23 nM | O=C(Cc1ccccc1)Nc1cncc(-c2ccc3[nH]nc(-c4nc5c(-c6cccc(F)c6)cncc5[nH]4)c3c2)c1 [compound 129] | 124%
13 nM | 160 nM | 30 nM | 1.2 nM | CC(C)Nc1cncc(-c2cnc3[nH]nc(-c4nc5c(-c6cccc(F)c6)cncc5[nH]4)c3c2)c1 [compound 131] | 504%
1 nM | 12 nM | 10 nM | 638 nM | CN(C)c1cncc(-c2ccc3[nH]nc(-c4nc5c(-c6cccc(F)c6)cncc5[nH]4)c3n2)c1 [compound 132] | 154%
2 nM | 37 nM | 10 nM | 659 nM | CN(C)c1cncc(-c2ccc3[nH]nc(-c4nc5c(-c6cccc(F)c6)ccnc5[nH]4)c3n2)c1 [compound 133] | 83.8%
6 nM | 76 nM | – | 40.9 nM | CCNCc1cncc(-c2cnc3[nH]nc(-c4nc5c(-c6cccc(F)c6)cccc5[nH]4)c3c2)c1 [compound 134] | 98.7%
1 nM | 55 nM | – | 253 nM | CN(C)CCOc1cncc(-c2cnc3[nH]nc(-c4nc5c(-c6cccc(F)c6)nccc5[nH]4)c3c2)c1 [compound 151] | –
3 nM | 40 nM | – | 268 nM | CC(C)CC(=O)Nc1cncc(-c2ccc3[nH]nc(-c4nc5c(N6CCN(C)CC6)cccc5[nH]4)c3c2)c1 [compound 217] | –
2 nM | 18 nM | – | 146 nM | Nc1cncc(-c2ccc3[nH]nc(-c4cc5c(-c6cccnc6)nccc5[nH]4)c3c2)c1 [compound 347] | –
1 nM | 6 nM | – | 14 nM | CN1CCC(n2cc(C(=O)Nc3cc4cc(-c5cnn(C)c5)ccc4cn3)cn2)CC1 [compound 561] | –
3 nM | 78 nM | – | 381 nM | O=C(Nc1cc2cc(-c3cncc(NC4CCNCC4)n3)ccc2cn1)C1CC(F)(F)C1 [compound 600] | –
7 nM | 53 nM | – | 383 nM | O=C(Nc1cc2cc(-c3cncc(NCC4(F)CNC4)n3)ncc2cn1)C1CC1 [compound 615] | –

Structure (SMILES) | EC50 (CLK2 kinase) | EC50 (CLK3 kinase) | EC50 [1] | EC50 [2] | Emax [1]
CC(C)Nc1cncc(-c2ccc3cnc(NC(=O)C4CCN(CCF)CC4)cc3c2)n1 [compound 598] | 8 nM | 52 nM | – | 178 nM | –
CNc1nc(NCc2ncccn2)c2c(-c3ccc4ncccc4c3)c[nH]c2n1 [compound 624] | 10 nM | 26 nM | – | 73.3 nM | –
